Results taken from PubChem BioAssay (NCI).
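Each compound was tested at five concentrations against cells in 96-well plates for 48 hours. At the TGI there is no net growth.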

How the values were obtained:
Experiment in all cases: growth of human tumour cells (NCI), 48 h
OVCAR-3 ovarian = tested on: OVCAR-3 ovarian
SK-MEL-28 melanoma = tested on: SK-MEL-28 melanoma
NCI-H522 lung = tested on: NCI-H522 lung
EKVX NSCLC = tested on: EKVX NSCLC
UACC-257 melanoma = tested on: UACC-257 melanoma
KM12 colon = tested on: KM12 colon
COLO 205 colon = tested on: COLO 205 colon
SF-295 CNS = tested on: SF-295 CNS
CAKI-1 renal = tested on: CAKI-1 renal
MDA-MB-435 = tested on: MDA-MB-435
HS 578T breast = tested on: HS 578T breast
SN12C renal = tested on: SN12C renal
HOP-62 NSCLC = tested on: HOP-62 NSCLC
A549 NSCLC = tested on: A549 NSCLC
MDA-MB-231 breast = tested on: MDA-MB-231 breast
UACC-62 melanoma = tested on: UACC-62 melanoma
A498 renal = tested on: A498 renal
HT29 colon = tested on: HT29 colon
SNB-75 CNS = tested on: SNB-75 CNS
SNB-19 CNS = tested on: SNB-19 CNS
K-562 leukemia = tested on: K-562 leukemia
OVCAR-4 ovarian = tested on: OVCAR-4 ovarian
TK-10 renal = tested on: TK-10 renal
U251 CNS = tested on: U251 CNS
NCI-H460 lung = tested on: NCI-H460 lung
SW-620 colon = tested on: SW-620 colon
OVCAR-8 ovarian = tested on: OVCAR-8 ovarian
LOX IMVI melanoma = tested on: LOX IMVI melanoma
HCT-15 colon = tested on: HCT-15 colon
RPMI-8226 leukemia = tested on: RPMI-8226 leukemia
T-47D breast = tested on: T-47D breast
SK-MEL-5 melanoma = tested on: SK-MEL-5 melanoma
HCT-116 colon = tested on: HCT-116 colon
BT-549 breast = tested on: BT-549 breast
SK-MEL-2 melanoma = tested on: SK-MEL-2 melanoma
PC-3 prostate = tested on: PC-3 prostate
NCI-H23 lung = tested on: NCI-H23 lung
IGROV1 ovarian = tested on: IGROV1 ovarian
OVCAR-5 ovarian = tested on: OVCAR-5 ovarian
MALME-3M melanoma = tested on: MALME-3M melanoma
NCI/ADR-RES ovarian = tested on: NCI/ADR-RES ovarian
SF-539 CNS = tested on: SF-539 CNS
M14 melanoma = tested on: M14 melanoma
DU-145 prostate = tested on: DU-145 prostate
SK-OV-3 ovarian = tested on: SK-OV-3 ovarian
ACHN renal = tested on: ACHN renal
MOLT-4 leukemia = tested on: MOLT-4 leukemia
UO-31 renal = tested on: UO-31 renal
786-0 renal = tested on: 786-0 renal
CCRF-CEM leukemia = tested on: CCRF-CEM leukemia
NCI-H226 lung = tested on: NCI-H226 lung
MDA-N = tested on: MDA-N
MCF7 breast = tested on: MCF7 breast
RXF 393 renal = tested on: RXF 393 renal
SF-268 CNS = tested on: SF-268 CNS
HCC-2998 colon = tested on: HCC-2998 colon
HOP-92 NSCLC = tested on: HOP-92 NSCLC
SR leukemia = tested on: SR leukemia

SMILES: Cc1nnc2sc(N/N=C/c3ccccc3)nn12
- TGI (OVCAR-3 ovarian): > 100 µM
- TGI (SK-MEL-28 melanoma): > 100 µM
- TGI (NCI-H522 lung): > 100 µM
- TGI (EKVX NSCLC): > 100 µM
- TGI (UACC-257 melanoma): > 100 µM
- TGI (KM12 colon): > 100 µM
- TGI (COLO 205 colon): > 100 µM
- TGI (SF-295 CNS): > 100 µM
- TGI (CAKI-1 renal): > 100 µM
- TGI (MDA-MB-435): > 100 µM
- TGI (HS 578T breast): > 100 µM
- TGI (SN12C renal): > 100 µM
- TGI (HOP-62 NSCLC): > 100 µM
- TGI (A549 NSCLC): > 100 µM
- TGI (MDA-MB-231 breast): > 100 µM
- TGI (UACC-62 melanoma): > 100 µM
- TGI (A498 renal): > 100 µM
- TGI (HT29 colon): > 100 µM
- TGI (SNB-75 CNS): > 100 µM
- TGI (SNB-19 CNS): > 100 µM
- TGI (K-562 leukemia): > 100 µM
- TGI (OVCAR-4 ovarian): > 100 µM
- TGI (TK-10 renal): > 100 µM
- TGI (U251 CNS): > 100 µM
- TGI (NCI-H460 lung): > 100 µM
- TGI (SW-620 colon): > 100 µM
- TGI (OVCAR-8 ovarian): > 100 µM
- TGI (LOX IMVI melanoma): > 100 µM
- TGI (HCT-15 colon): > 100 µM
- TGI (RPMI-8226 leukemia): > 100 µM
- TGI (T-47D breast): > 100 µM
- TGI (SK-MEL-5 melanoma): > 100 µM
- TGI (HCT-116 colon): > 100 µM
- TGI (BT-549 breast): > 100 µM
- TGI (SK-MEL-2 melanoma): > 100 µM
- TGI (PC-3 prostate): > 100 µM
- TGI (NCI-H23 lung): > 100 µM
- TGI (IGROV1 ovarian): > 100 µM
- TGI (OVCAR-5 ovarian): > 100 µM
- TGI (MALME-3M melanoma): > 100 µM
- TGI (NCI/ADR-RES ovarian): > 100 µM
- TGI (SF-539 CNS): > 100 µM
- TGI (M14 melanoma): > 100 µM
- TGI (DU-145 prostate): > 100 µM
- TGI (SK-OV-3 ovarian): 88.1 µM
- TGI (ACHN renal): > 100 µM
- TGI (MOLT-4 leukemia): > 100 µM
- TGI (UO-31 renal): > 100 µM
- TGI (786-0 renal): > 100 µM
- TGI (CCRF-CEM leukemia): > 100 µM
- TGI (NCI-H226 lung): > 100 µM
- TGI (MDA-N): > 100 µM
- TGI (MCF7 breast): > 100 µM
- TGI (RXF 393 renal): > 100 µM
- TGI (SF-268 CNS): > 100 µM

SMILES: CC[C@@]1(O)C(=O)OCc2c1cc1n(c2=O)Cc2cc3c(NC(=O)CN)cccc3nc2-1
- TGI (OVCAR-3 ovarian): 9.34 µM
- TGI (SK-MEL-28 melanoma): > 100 µM
- TGI (NCI-H522 lung): 56.3 µM
- TGI (EKVX NSCLC): > 100 µM
- TGI (UACC-257 melanoma): 13.2 µM
- TGI (KM12 colon): 34.6 µM
- TGI (COLO 205 colon): > 51.3 µM
- TGI (SF-295 CNS): 20.4 µM
- TGI (CAKI-1 renal): 2.14 µM
- TGI (MDA-MB-435): 17.3 µM
- TGI (HS 578T breast): > 100 µM
- TGI (HCC-2998 colon): 9.05 µM
- TGI (SN12C renal): 17.1 µM
- TGI (HOP-62 NSCLC): 9.22 µM
- TGI (A549 NSCLC): > 48.5 µM
- TGI (MDA-MB-231 breast): > 73 µM
- TGI (UACC-62 melanoma): 7.42 µM
- TGI (A498 renal): 3.27 µM
- TGI (HT29 colon): > 100 µM
- TGI (SNB-75 CNS): 0.693 µM
- TGI (SNB-19 CNS): > 100 µM
- TGI (K-562 leukemia): > 100 µM
- TGI (OVCAR-4 ovarian): > 100 µM
- TGI (TK-10 renal): > 81.7 µM
- TGI (U251 CNS): 5.16 µM
- TGI (NCI-H460 lung): 2.94 µM
- TGI (SW-620 colon): > 100 µM
- TGI (OVCAR-8 ovarian): > 43.8 µM
- TGI (HCT-15 colon): > 100 µM
- TGI (RPMI-8226 leukemia): 28.6 µM
- TGI (HOP-92 NSCLC): > 100 µM
- TGI (T-47D breast): 0.744 µM
- TGI (SK-MEL-5 melanoma): 2.32 µM
- TGI (HCT-116 colon): > 56.1 µM
- TGI (BT-549 breast): > 100 µM
- TGI (SK-MEL-2 melanoma): 14.8 µM
- TGI (PC-3 prostate): > 100 µM
- TGI (NCI-H23 lung): 4.26 µM
- TGI (IGROV1 ovarian): > 100 µM
- TGI (OVCAR-5 ovarian): 63.8 µM
- TGI (NCI/ADR-RES ovarian): > 100 µM
- TGI (SR leukemia): < 0.0121 µM
- TGI (M14 melanoma): 2.8 µM
- TGI (DU-145 prostate): 1.98 µM
- TGI (SK-OV-3 ovarian): 25.3 µM
- TGI (ACHN renal): 1.02 µM
- TGI (MOLT-4 leukemia): 0.161 µM
- TGI (UO-31 renal): 3.55 µM
- TGI (786-0 renal): 3 µM
- TGI (CCRF-CEM leukemia): 2.33 µM
- TGI (NCI-H226 lung): 3.79 µM
- TGI (MDA-N): 46.7 µM
- TGI (MCF7 breast): > 100 µM
- TGI (RXF 393 renal): 0.354 µM
- TGI (SF-268 CNS): > 39.8 µM
